Measurements published in patent US20060276528A1, “Novel benzo-fused heteroaryl sulfamide derivatives useful as anticonvulsant agents” (priority 2004, published 2006).

Legend:
carbonic anhydrase = details: background statement, figure not given; cited from earlier work
[1] = test system: MES-induced seizure (full body tonic extension); assay: Maximal Electroshock Test (MES), anticonvulsant activity; type: in vivo, CF-1 male albino mice; details: oral; for MES @100 mpk: (number of mice with full body tonic extension prevented)/(total number of mice tested) / MES @100 mpk, result in words: 100 mg/kg; for MES @100 mpk, result in words: mice, time not given; for MES @ 300 mpk: (number of mice with full body tonic extension prevented)/(total number of mice tested): 300 mg/kg
Procedure: Anticonvulsant activity was determined using the MES test, run according to the procedure described in detail below. Swinyard E A, Woodhead J H, White H S, Franklin M R. Experimental selection, quantification, and evaluation of anticonvulsants. In Levy R H, et al., eds. Antiepileptic Drugs. 3rd ed. New York: Raven Press, 1989:85-102 CF-1 male albino mice (25-35 g) were fasted for 16 hours before testing. Mice were randomly selected into control and test groups, with the animals dosed with vehicle or test compound, at varying concentrations, respectively. On the study date, at 30 minutes prior to shock, the mice were orally dosed with vehicle (0.5% methylcellulose) or test compound (100-300 mg/kg). Seizures were induced by trans-corneal electric shock using a 60-Hz alternating current, 50 mA, delivered for 0.2 sec. The mice in the test groups were subjected to electrical stimulus at time intervals between 15 minutes and 4 hours following administration of test compound. […] The test was complete when the entire course of the convulsion has been observed (typically, less than 1 minute after electrical stimulation), and the mice were then immediately euthanized by carbon dioxide inhalation. Abolition of the full body tonic extensor component of the seizure was taken as the endpoint of the test. […] The ED50 value of the test compound (calculated when appropriate) was the calculated dose required to block the hind limb tonic-extensor component of the MES-induced seizure in 50% of the rodents tested. A probit analysis was used to calculate the ED50 and 95% fiducial limits (FL). Representative compounds of the present invention were tested according to the procedure described above, with results as listed in Table 6 below. Results are listed as (number of mice with full body tonic extension prevented)/(total number of mice tested) (@ a given time).

| SMILES | carbonic anhydrase inhibition (carbonic anhydrase) | MES @100 mpk: (number of mice with full body tonic extension prevented)/(total number of mice tested) ([1]; 0.5 h after dosing) | MES @100 mpk: (number of mice with full body tonic extension prevented)/(total number of mice tested) ([1]; 2 h after dosing) | MES @100 mpk: (number of mice with full body tonic extension prevented)/(total number of mice tested) ([1]; 4 h after dosing) | MES @100 mpk, result in words [1] | MES @ 300 mpk: (number of mice with full body tonic extension prevented)/(total number of mice tested) ([1]; 0.5 hr after dosing) | MES @ 300 mpk: (number of mice with full body tonic extension prevented)/(total number of mice tested) ([1]; 2 hr after dosing) | MES @ 300 mpk: (number of mice with full body tonic extension prevented)/(total number of mice tested) ([1]; 4 hr after dosing) |
| --- | --- | --- | --- | --- | --- | --- | --- | --- |
| CC1(C)O[C@@H]2[C@@H](CO[C@@]3(COS(N)(=O)=O)OC(C)(C)O[C@@H]23)O1 [Topiramate] | single digit micromolar | – | – | – | – | – | – | – |
| CC(NS(N)(=O)=O)c1csc2ccccc12 (stereo not shown) [Compound 9, N-(1-benzo[b]thien-3-ylethyl)-sulfamide] | – | 1/5 (0.5 h) | 0/5 (2 h) | 0/5 (4 h) | – | – | – | – |
| NS(=O)(=O)NCc1csc2ccc(Cl)cc12 [Compound 3, N-[(5-chlorobenzo[b]thien-3-yl)methyl]-sulfamide] | – | – | – | – | inactive | 0/5 (0.5 hr) | 3/5 (2 hr) | 1/5 (4 hr) |
| NS(=O)(=O)NCc1csc2ccc(Br)cc12 [Compound 15, N-[(5-bromobenzo[b]thien-3-yl)methyl]-sulfamide] | – | – | – | – | – | 0/3 (0.5 hr) | 0/3 (2 hr) | 1/3 (4 hr) |
| Cc1oc2ccccc2c1CNS(N)(=O)=O [Compound 13] | – | 4/5 (0.5 h) | 0/5 (2 h) | 0/5 (4 h) | – | – | – | – |
| NS(=O)(=O)NCc1csc2ccccc12 [Compound 1, N-(benzo[b]thien-3-ylmethyl)-sulfamide] | – | 1/5 (0.5 h) | 3/5 (2 h) | 2/5 (4 h) | – | – | – | – |
| NS(=O)(=O)NCc1coc2ccccc12 [Compound 6, N-(3-benzofuranylmethyl)-sulfamide] | – | – | – | – | inactive | 5/5 (0.5 hr) | 0/5 (2 hr) | 0/5 (4 hr) |
| Cn1cc(CNS(N)(=O)=O)c2ccccc21 [Compound 7, N-[(1-methyl-1H-indol-3-yl)methyl]-sulfamide] | – | – | – | – | inactive | 5/5 (0.5 hr) | 0/5 (2 hr) | 0/5 (4 hr) |
| NS(=O)(=O)NCc1csc2ccc(F)cc12 [Compound 8, N-[(5-fluorobenzo[b]thien-3-yl)methyl]-sulfamide] | – | 0/5 (0.5 h) | 4/5 (2 h) | 1/5 (4 h) | – | – | – | – |
| NS(=O)(=O)NCc1csc2cccc(Br)c12 [Compound 17, N-[(4-bromobenzo[b]thien-3-yl)methyl]-sulfamide] | – | – | – | – | – | 0/3 (0.5 hr) | 0/3 (2 hr) | 1/3 (4 hr) |
| NS(=O)(=O)NCc1csc2c(F)cccc12 [Compound 18, N-[(7-fluorobenzo[b]thien-3-yl)methyl]-sulfamide] | – | – | – | – | – | 0/3 (0.5 hr) | 2/3 (2 hr) | 0/3 (4 hr) |
| NS(=O)(=O)NCc1cccc2ccccc12 [Compound 10, N-(1-naphthalenylmethyl)-sulfamide] | – | 2/5 (0.5 h) | 1/5 (2 h) | 0/5 (4 h) | – | – | – | – |
